# Reference: patent publication US20030055010A1, “Preserving active fungicide in an aqueous solution” (priority 1999, published 2003)
# Assay: Rest activity of natamycin over time in water based polymer dispersion mixtures (HPLC)
# Type: physicochemical
# Excerpt: This example describes a method to prepare a formulation suitable for use as a food coating and which was developed to test the stability of natamycin over time in relation to the added base polymers.
# The mixtures were made with an electric top stirrer, type RW 20 DZM, from Janke & Kunkel equipped with a rushton stirrer.
# The mixtures were made by adding 500 gram Mowilith DM2KL, 1000 gram of the latex polymer, to be tested together with 4 gram Delvocid® and a protective additive.
# The total weight was made up to 2000 gram with tap water.
# This crude mixture was mixed for 5 minutes to obtain a homogeneous mixture and was then adjusted to pH 4-7 with ammonia.
# The mixture was stored at 18° C. in a closed pot in the dark.
# The prepared mixtures were measured over time for the amount of active natamycin using the test described in Example 2.
# This Example describes the method that was used to analyze the amount of active natamycin in a water based mixture of several components.
# The method was a HPLC analysis based on the International Dairy Federation (Provisional ADF Standard 140, 1987) with a Lichrosorb RP 8 column. Detection was by UV at 303 nm with a range of 0.1-4 mg/L with an injection volume of 20 μl.
# Sample preparation was carried out by weighing 2 g prepared formulation with an accuracy of 1 mg in a measuring flask. 4 ml demineralized water (demiwater) was added and the mixture was stirred for […] a homogeneous suspension.
# Subsequently 80 ml methanol was added and the mixture was stirred for 10 minutes. After ultrasonic treatment the solution was filled up to 100 ml with demiwater and the diluted and/or filtered (0.2 μm) before injecting.
# The amount of active natamycin as ppm was calculated against a series of standards.
# To test the stability of natamycin in combination with water based polymer dispersions mixtures, mixtures were made according to Example 1, and the rest activity of natamycin measured according to Example 2. The results are set out in table 1 (rest activity in %).
smiles,measurement,setting,value
C[C@@H]1C/C=C/C=C/C=C/C=C/[C@H](O[C@@H]2O[C@H](C)[C@@H](O)[C@H](N)[C@@H]2O)C[C@@H]2O[C@](O)(C[C@@H](O)C[C@H]3O[C@@H]3/C=C/C(=O)O1)C[C@H](O)[C@H]2C(=O)O [natamycin],Rest activity of natamycin over time,"Basepolymer 2, EDTA-disodiumsalt 0 ppm, 0 weeks",100%
same,Rest activity of natamycin over time,"Basepolymer 2, EDTA-disodiumsalt 0 ppm, 1 week",70%
same,Rest activity of natamycin over time,"Basepolymer 2, EDTA-disodiumsalt 0 ppm, 3 weeks",22%
same,Rest activity of natamycin over time,"Basepolymer 2, EDTA-disodiumsalt 0 ppm, 5 weeks",5%
same,Rest activity of natamycin over time,"Basepolymer 2, EDTA-disodiumsalt 0 ppm, 7 weeks",2%
same,Rest activity of natamycin over time,"Basepolymer 2, EDTA-disodiumsalt 100 ppm, 0 weeks",100%
same,Rest activity of natamycin over time,"Basepolymer 2, EDTA-disodiumsalt 100 ppm, 1 week",99%
same,Rest activity of natamycin over time,"Basepolymer 2, EDTA-disodiumsalt 100 ppm, 3 weeks",98%
same,Rest activity of natamycin over time,"Basepolymer 2, EDTA-disodiumsalt 100 ppm, 5 weeks",88%
same,Rest activity of natamycin over time,"Basepolymer 2, EDTA-disodiumsalt 100 ppm, 7 weeks",82%
same,Rest activity of natamycin over time,"Basepolymer 2, EDTA-disodiumsalt 250 ppm, 0 weeks",100%
same,Rest activity of natamycin over time,"Basepolymer 2, EDTA-disodiumsalt 250 ppm, 1 week",97%
same,Rest activity of natamycin over time,"Basepolymer 2, EDTA-disodiumsalt 250 ppm, 3 weeks",95%
same,Rest activity of natamycin over time,"Basepolymer 2, EDTA-disodiumsalt 250 ppm, 5 weeks",88%
same,Rest activity of natamycin over time,"Basepolymer 2, EDTA-disodiumsalt 250 ppm, 7 weeks",85%
same,Rest activity of natamycin over time,"Basepolymer 2, EDTA-disodiumsalt 500 ppm, 0 weeks",100%
same,Rest activity of natamycin over time,"Basepolymer 2, EDTA-disodiumsalt 500 ppm, 1 week",95%
same,Rest activity of natamycin over time,"Basepolymer 2, EDTA-disodiumsalt 500 ppm, 3 weeks",92%
same,Rest activity of natamycin over time,"Basepolymer 2, EDTA-disodiumsalt 500 ppm, 5 weeks",86%
same,Rest activity of natamycin over time,"Basepolymer 2, EDTA-disodiumsalt 500 ppm, 7 weeks",80%
same,Rest activity of natamycin over time,"Basepolymer 2, EDTA-disodiumsalt 750 ppm, 0 weeks",100%
same,Rest activity of natamycin over time,"Basepolymer 2, EDTA-disodiumsalt 750 ppm, 1 week",96%
same,Rest activity of natamycin over time,"Basepolymer 2, EDTA-disodiumsalt 750 ppm, 3 weeks",95%
same,Rest activity of natamycin over time,"Basepolymer 2, EDTA-disodiumsalt 750 ppm, 5 weeks",88%
same,Rest activity of natamycin over time,"Basepolymer 2, EDTA-disodiumsalt 750 ppm, 7 weeks",82%
same,Rest activity of natamycin over time,"Basepolymer 2, EDTA-disodiumsalt 1000 ppm, 0 weeks",100%
same,Rest activity of natamycin over time,"Basepolymer 2, EDTA-disodiumsalt 1000 ppm, 1 week",96%
same,Rest activity of natamycin over time,"Basepolymer 2, EDTA-disodiumsalt 1000 ppm, 3 weeks",95%
same,Rest activity of natamycin over time,"Basepolymer 2, EDTA-disodiumsalt 1000 ppm, 5 weeks",88%
same,Rest activity of natamycin over time,"Basepolymer 2, EDTA-disodiumsalt 1000 ppm, 7 weeks",81%
same,Rest activity of natamycin over time,"Basepolymer 2, EDTA-disodiumsalt 2000 ppm, 0 weeks",100%
same,Rest activity of natamycin over time,"Basepolymer 2, EDTA-disodiumsalt 2000 ppm, 1 week",97%
same,Rest activity of natamycin over time,"Basepolymer 2, EDTA-disodiumsalt 2000 ppm, 3 weeks",94%
same,Rest activity of natamycin over time,"Basepolymer 2, EDTA-disodiumsalt 2000 ppm, 5 weeks",88%
same,Rest activity of natamycin over time,"Basepolymer 2, EDTA-disodiumsalt 2000 ppm, 7 weeks",79%
same,Rest activity of natamycin over time,"Basepolymer 2, EDTA-disodiumsalt 5000 ppm, 0 weeks",100%
same,Rest activity of natamycin over time,"Basepolymer 2, EDTA-disodiumsalt 5000 ppm, 1 week",97%
same,Rest activity of natamycin over time,"Basepolymer 2, EDTA-disodiumsalt 5000 ppm, 3 weeks",95%
same,Rest activity of natamycin over time,"Basepolymer 2, EDTA-disodiumsalt 5000 ppm, 5 weeks",88%
same,Rest activity of natamycin over time,"Basepolymer 2, EDTA-disodiumsalt 5000 ppm, 7 weeks",81%
same,Rest activity of natamycin over time,"basepolymer 3, With BHA 1000 ppm, 1 week",96%
same,Rest activity of natamycin over time,"basepolymer 3, With BHA 1000 ppm, 2 weeks",92%
same,Rest activity of natamycin over time,"basepolymer 3, With BHA 1000 ppm, 4 weeks",84%
same,Rest activity of natamycin over time,"basepolymer 3, With tocopherol 1000 ppm, 1 week",92%
same,Rest activity of natamycin over time,"basepolymer 3, With tocopherol 1000 ppm, 2 weeks",83%
same,Rest activity of natamycin over time,"basepolymer 3, With tocopherol 1000 ppm, 4 weeks",76%
same,Rest activity of natamycin over time,"basepolymer 3, Without additive, 1 week",88%
same,Rest activity of natamycin over time,"basepolymer 3, Without additive, 2 weeks",70%
same,Rest activity of natamycin over time,"basepolymer 3, Without additive, 4 weeks",50%
